Measured values as given in US20090069300A1, “ISOQUINOLINYL AND ISOINDOLINYL DERIVATIVES AS HISTAMINE-3 ANTAGONISTS” (Wyeth, priority 2007, published 2009).
pKi: −log10 of the molar value. Where a name gives a salt, the structure may show the parent alone.

Tested on: not given
Assay: not given
Conditions: not given
`O=C(O)c1ccc(Oc2ccc3c(c2)CCN(CCN2CCCC2)C3=O)cc1` showed a melting point of 99 to 100 °C. `CCCNC(=O)c1ccc(-c2ccc3c(c2)CCN(CCN2CCCC2)C3=O)cc1` (as salt: hydrochloride) showed a melting point of 240 to 241 °C. `C[C@@H]1CCCN1CCN1Cc2ccc(-c3ccc(F)cc3)cc2C1` (as salt: hydrochloride) showed a melting point of 250 to 251 °C. `COC(=O)c1ccc(-c2ccc3c(c2)CCN(CCN2CCCC2)C3=O)cc1` (as salt: hydrochloride) showed a melting point of 118 to 120 °C. With `COc1ccc2c(c1)CCN(CCN1CCCC1)C2=O` (as salt: hydrochloride) the melting point was 201 to 202 °C. Molecule `COC(=O)c1ccc(Oc2ccc3c(c2)CCN(CCN2CCCC2)C3=O)cc1` (as salt: hydrochloride) has a melting point of 215 to 216 °C. Work on `O=C1c2ccc(-c3cc(F)cc(F)c3)cc2CCN1CCN1CCCC1` (as salt: hydrochloride) [Example 10, 6-(3,5-difluorophenyl)-2-(2-pyrrolidin-1-ylethyl)-3,4-dihydroisoquinolin-1(2H)-one] yielded a melting point of 196 to 198 °C. Molecule `O=C1c2ccc(-c3ccccc3F)cc2CCN1CCN1CCCC1` (as salt: hydrochloride) [Example 12, 6-(2-fluorophenyl)-2-(2-pyrrolidin-1-ylethyl)-3,4-dihydroisoquinolin-1(2H)-one] has a melting point of 211 to 213 °C. For `O=C1c2ccc(-c3cccc(OC(F)(F)F)c3)cc2CCN1CCN1CCCC1` (as salt: hydrochloride) [Example 13, 2-(2-pyrrolidin-1-ylethyl)-6-[3-(trifluoromethoxy)phenyl]-3,4-dihydroisoquinolin-1(2H)-one], the melting point was 135 to 137 °C. `N#Cc1cccc(-c2ccc3c(c2)CCN(CCN2CCCC2)C3=O)c1` (as salt: hydrochloride) [Example 15, 3-[1-oxo-2-(2-pyrrolidin-1-ylethyl)-1,2,3,4-tetrahydroisoquinolin-6-yl]benzonitrile] gave a melting point of 204 to 206 °C. In the case of `O=C1c2ccc(-c3ccccc3)cc2CCN1CCN1CCCC1` (as salt: hydrochloride) [Example 16, 6-phenyl-2-(2-pyrrolidin-1-ylethyl)-3,4-dihydroisoquinolin-1(2H)-one], the melting point was 218 to 220 °C. With `O=C1c2ccc(-c3ccc(F)c(F)c3)cc2CCN1CCN1CCCC1` (as salt: hydrochloride) [Example 17, 6-(3,4-difluorophenyl)-2-(2-pyrrolidin-1-ylethyl)-3,4-dihydroisoquinolin-1(2H)-one] the melting point was 179 to 180 °C.

Biological target: T1, Human Histamine H3 Receptor (Homo sapiens, UniProt Q9Y5N1)
T1 construct: expressed in transfected cells; host or cells: HEK293T (stably transfected; membranes prepared from the cells)
T1 sequence (Q9Y5N1 whole entry): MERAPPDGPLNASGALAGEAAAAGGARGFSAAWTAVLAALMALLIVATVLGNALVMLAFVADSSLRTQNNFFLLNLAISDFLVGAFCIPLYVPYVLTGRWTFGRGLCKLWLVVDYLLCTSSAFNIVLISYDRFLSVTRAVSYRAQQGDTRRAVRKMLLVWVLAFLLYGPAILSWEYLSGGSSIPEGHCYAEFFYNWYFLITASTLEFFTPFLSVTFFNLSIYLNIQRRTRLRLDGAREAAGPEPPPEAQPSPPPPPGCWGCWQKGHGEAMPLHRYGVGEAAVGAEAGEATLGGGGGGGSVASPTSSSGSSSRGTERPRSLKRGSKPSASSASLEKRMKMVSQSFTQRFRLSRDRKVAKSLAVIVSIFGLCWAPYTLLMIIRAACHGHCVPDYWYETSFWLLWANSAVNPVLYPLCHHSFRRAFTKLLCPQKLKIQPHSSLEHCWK
Assay: Methyl histamine binding in human histamine H3 receptor cell line
Conditions: read-out: H3 Binding Ki
In short: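 Radioligand binding on membranes (10 μg/well) from a human H3 receptor cell line, 1 nM radioligand, 1 h at 30° C. in 50 mM Tris pH 7.5. Nonspecific binding defined with 10 uM clobenpropit, followed by filtration and scintillation counting. IC50 from four-parameter fit, converted to Ki by Cheng-Prusoff.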
With `CN(C)C(=O)c1ccc(-c2ccc3c(c2)CCN(CCN2CCCC2)C3=O)c(F)c1` [Example 137, 3-fluoro-N,N-dimethyl-4-[1-oxo-2-(2-pyrrolidin-1-ylethyl)-1,2,3,4-tetrahydroisoquinolin-6-yl]benzamide] the pKi was > 8.00. For `O=C(c1ccc(-c2ccc3c(c2)CCN(CCN2CCCC2)C3=O)c(F)c1)N1CCCC1` [Example 138, 6-[2-fluoro-4-(pyrrolidin-1-ylcarbonyl)phenyl]-2-(2-pyrrolidin-1-ylethyl)-3,4-dihydroisoquinolin-1(2H)-one], the pKi was > 8.00. For `CNC(=O)c1ccc(-c2ccc3c(c2)CCN(CCN2CCCC2)C3=O)c(F)c1` [Example 139, 3-fluoro-N-methyl-4-[1-oxo-2-(2-pyrrolidin-1-ylethyl)-1,2,3,4-tetrahydroisoquinolin-6-yl]benzaimde], the pKi was > 8.00. In the case of `CCNC(=O)c1ccc(-c2ccc3c(c2)CCN(CCN2CCCC2)C3=O)c(F)c1` [Example 140, N-ethyl-3-fluoro-4-[1-oxo-2-(2-pyrrolidin-1-ylethyl)-1,2,3,4-tetrahydroisoquinolin-6-yl]benzamide], the pKi was > 8.00. With `CNC(=O)c1ccc(-c2ccc3c(c2)CCN(CCCN2CCCC2)C3=O)cc1` [Example 141, N-methyl-4-[1-oxo-2-(3-pyrrolidin-1-ylpropyl)-1,2,3,4-tetrahydroisoquinolin-6-yl]benzamide] the pKi was > 8.00. For `C[C@@H]1CCCN1CCN1CCc2cc(C(=O)N3CCCCCC3)ccc2C1=O` [Example 144, 6-(azepan-1-ylcarbonyl)-2-{2-[(2R)-2-methylpyrrolidin-1-yl]ethyl}-3,4-dihydroisoquinolin-1(2H)-one], the pKi was > 8.00. For `C[C@@H]1CCCN1CCN1CCc2cc(C(=O)NC3CCC3)ccc2C1=O` [Example 145, N-cyclobutyl-2-{2-[(2R)-2-methylpyrrolidin-1-yl]ethyl}-1-oxo-1,2,3,4-tetrahydroisoquinoline-6-carboxamide], the pKi was > 8.00. For `C[C@@H]1CCCN1CCN1CCc2cc(C(=O)N3CCCCC3)ccc2C1=O` [Example 146, 2-{2-[(2R)-2-methylpyrrolidin-1-yl]ethyl}-6-(piperidin-1-ylcarbonyl)-3,4-dihydroisoquinolin-1(2H)-one], the pKi was > 8.00. With `C[C@@H]1CCCN1CCN1CCc2cc(C(=O)NC3CCCCC3)ccc2C1=O` [Example 147, N-cyclohexyl-2-{2-[(2R)-2-methylpyrrolidin-1-yl]ethyl}-1-oxo-1,2,3,4-tetrahydroisoquinoline-6-carboxamide] the pKi was > 8.00. With `C[C@@H]1CCCN1CCN1CCc2cc(C(=O)NC3Cc4ccccc4C3)ccc2C1=O` [Example 148, N-(2,3-dihydro-1H-inden-2-yl)-2-{2-[(2R)-2-methylpyrrolidin-1-yl]ethyl}-1-oxo-1,2,3,4-tetrahydroisoquinoline-6-carboxamide] the pKi was > 8.00. With `C[C@@H]1CCCN1CCN1CCc2cc(C(=O)NC3CCCC3)ccc2C1=O` [Example 149, N-cyclopentyl-2-{2-[(2R)-2-methylpyrrolidin-1-yl]ethyl}-1-oxo-1,2,3,4-tetrahydroisoquinoline-6-carboxamide] the pKi was > 8.00. For `C[C@@H]1CCCN1CCN1CCc2cc(C(=O)N3CCc4ccccc4C3)ccc2C1=O` [Example 150, 6-(3,4-dihydroisoquinolin-2(1H)-ylcarbonyl)-2-{2-[(2R)-2-methylpyrrolidin-1-yl]ethyl}-3,4-dihydroisoquinolin-1(2H)-one], the pKi was > 8.00. For `C[C@@H]1CCCN1CCN1CCc2cc(C(=O)N3CCCC3)ccc2C1=O` [Example 151, 2-{2-[(2R)-2-methylpyrrolidin-1-yl]ethyl}-6-(pyrrolidin-1-ylcarbonyl)-3,4-dihydroisoquinolin-1(2H)-one], the pKi was > 8.00. For `C[C@@H]1CCCN1CCN1CCc2cc(C(=O)N3Cc4ccccc4C3)ccc2C1=O` [Example 152, 6-(1,3-dihydro-2H-isoindol-2-ylcarbonyl)-2-{2-[(2R)-2-methylpyrrolidin-1-yl]ethyl}-3,4-dihydroisoquinolin-1(2H)-one], the pKi was > 8.00. For `C[C@@H]1CCCN1CCN1CCc2cc(C(=O)Nc3ccncc3)ccc2C1=O` [Example 153, 2-{2-[(2R)-2-methylpyrrolidin-1-yl]ethyl}-1-oxo-N-pyridin-4-yl-1,2,3,4-tetrahydroisoquinoline-6-carboxamide], the pKi was > 8.00. In the case of `C[C@@H]1CCCN1CCN1CCc2cc(-n3cnc4ccccc43)ccc2C1=O` [Example 154, (R)-6-(1H-benzo[d]imidazol-1-yl)-2-(2-(2-methylpyrrolidin-1-yl)ethyl)-3,4-dihydroisoquinolin-1(2H)-one hydrochloride], the pKi was > 8.00. With `C[C@@H]1CCCN1CCN1CCc2cc(-c3ccc4c(c3)CCNC4=O)ccc2C1=O` [Example 157, (R)-2-(2-(2-methylpyrrolidin-1-yl)ethyl)-3,3′,4,4′-tetrahydro-6,6′-biisoquinoline-1,1′(2H,2′H-dione hydrochloride] the pKi was > 8.00. With `C[C@@H]1CCCN1CCN1CCc2cc(Oc3ccc(C(=O)N4CCCC4)cc3)ccc2C1=O` [Example 160, 2-{2-[(2R)-2-methylpyrrolidin-1-yl]ethyl}-6-[4-(pyrrolidin-1-ylcarbonyl)phenoxy]-3,4-dihydroisoquinolin-1(2H)-one hydrochloride] the pKi was > 8.00. In the case of `C[C@@H]1CCCN1CCN1CCc2cc(N3CCCCC3)ccc2C1=O` [Example 161, 2-{2-[(2R)-2-methylpyrrolidin-1-yl]ethyl}-6-piperidin-1-yl-3,4-dihydroisoquinolin-1(2H)-one], the pKi was > 8.00. In the case of `NC(=O)c1ccc(-c2ccc3c(c2)CCN(CCN2CCCC2)C3)cc1` [Example 180, 4-[2-(2-pyrrolidin-1-ylethyl)-1,2,3,4-tetrahydroisoquinolin-6-yl]benzamide], the pKi was 7.60 to 8.00. For `CNC(=O)c1ccc(-c2ccc3c(c2)CCN(CCN2CCCC2)C3)cc1` [Example 181, N-methyl-4-[2-(2-pyrrolidin-1-ylethyl)-1,2,3,4-tetrahydroisoquinolin-6-yl]benzamide], the pKi was > 8.00. In the case of `CCNC(=O)c1ccc(-c2ccc3c(c2)CCN(CCN2CCCC2)C3)cc1` [Example 182, N-ethyl-4-[2-(2-pyrrolidin-1-ylethyl)-1,2,3,4-tetrahydroisoquinolin-6-yl]benzamide], the pKi was > 8.00. In the case of `CN(C)C(=O)c1ccc(-c2ccc3c(c2)CCN(CCN2CCCC2)C3)cc1` [Example 183, N,N-dimethyl-4-[2-(2-pyrrolidin-1-ylethyl)-1,2,3,4-tetrahydroisoquinolin-6-yl]benzamide], the pKi was > 8.00. With `O=C(c1ccc(-c2ccc3c(c2)CCN(CCN2CCCC2)C3)cc1)N1CCCC1` [Example 184, 6-[4-(pyrrolidin-1-ylcarbonyl)phenyl]-2-(2-pyrrolidin-1-ylethyl)-1,2,3,4-tetrahydroisoquinoline] the pKi was > 8.00. For `O=C(c1ccc(-c2ccc3c(c2)CCN(CCN2CCCC2)C3)cc1)N1CCCCC1` [Example 185, 6-[4-(piperidin-1-ylcarbonyl)phenyl]-2-(2-pyrrolidin-1-ylethyl)-1,2,3,4-tetrahydroisoquinoline], the pKi was 7.60 to 8.00. With `O=C(c1ccc(-c2ccc3c(c2)CCN(CCN2CCCC2)C3)cc1)N1CCOCC1` [Example 186, 6-[4-(morpholin-4-ylcarbonyl)phenyl]-2-(2-pyrrolidin-1-ylethyl)-1,2,3,4-tetrahydroisoquinoline] the pKi was > 8.00. In the case of `C[C@@H]1CCCN1C(=O)c1ccc(-c2ccc3c(c2)CCN(CCN2CCCC2)C3)cc1` [Example 187], the pKi was 7.60 to 8.00.
